Each structure is given as a SMILES string.

The record followed here is patent publication US9695127B2, “Compounds for treating HIV and methods for using the compounds” (University of Pittsburgh—Of the Commonwealth System of …, priority 2012, dated 2017).

In the first series the test system is wild-type HIV-1 NL4-3. Put plainly: HIV-1 replication in U87MG cells (p24 ELISA). Conditions: 3 μM, U87MG cells. The format is cell-based. The text has this:
In particular disclosed embodiments, the compound may be used to block Nef-dependent HIV replication and infectivity. FIG. 7 illustrates the chemical structures of the compounds identified by the Nef:Hck HTS campaign and subsequently shown to block Nef-dependent enhancement of HIV-1 replication in two different cell lines are shown, along with the IC50 values for each compound against Hck alone vs. the Nef:Hck complex. FIG. 8 illustrates results concerning HIV replication. […] Viral output for the DMSO-treated control cultures was consistently greater than 100-fold over the HIV input, typically ranging from 9,000-12,000 p24 equivalents/ml. Virus replication was assessed by p24 ELISA after 4 days (U87MG) or 9 days (CEM-T4). Data are expressed as the mean percent inhibition as compared to control cultures incubated with the carrier solvent (DMSO)±S.E.M. (n=4). Results of replication and cytotoxicity experiments with all certain hit compounds from the primary screen are shown in FIG. 3 and FIG. 4. FIG. 9 concerns infectivity assays. Compounds (3 μM) were added to cultures of the reporter cell line TZM-b1 followed by infection with either wild-type or Nef-defective (ΔNef) HIV NL4-3 in 96-well plates. After 48 hours, relative virus infectivity was assessed as luciferase production in infected cells. Results are plotted as the mean percent of HIV-1 infectivity observed in control cells incubated with the carrier solvent DMSO±S.E.M. (n=3). In the absence of Nef, infectivity is reduced by about 50% (ΔNef; dashed line shown for reference).
(§1) HIV assays: Viral stocks were prepared by transfection of 293T cells (ATCC) with wild-type and Nef-defective (ΔNef) proviral genomes (NL4—3 strain) and amplified in the T-cell line, MT2 (NIH AIDS Research and Reference Reagent Program). Viral replication was assessed in the U87MG astroglioma cell line engineered to express the HIV-1 co-receptors CD4 and CXCR4 or in the T-lymphoblast cell line, CEM-T4. Both the U87 MG and CEM-T4 cell lines support HIV-1 replication in a Nef-dependent manner, and were obtained from the NM AIDS Research and Reference Reagent Program. Compounds were solubilized in DMSO, and added to the cell culture medium 1 h prior to infection with HIV. Viral replication was monitored for either 4 days (U87MG) or 9 days (CEM-T4) by measuring p24 Gag protein levels in the culture supernatant using standard ELISA-based techniques. HIV-1 infectivity was measured using the reporter cell line, TZM-b1 (NM AIDS Research and Reference Reagent Program). Cells were grown in 96-well plates (2.5×10^4) 8 h prior to virus infection to permit adherence. Compounds were pre-incubated with wild-type HIV-1 for 4 h prior to addition to the cells in a final volume of 200 μl. After 48 h at 37° C., the cells were washed with PBS and lysed in luciferase lysis buffer (Promega) by rocking for 15 min Lysates (40 μl) were transferred to white 96-well plates and 50 μl luciferase reagent (Promega) was injected into each well. Readings were recorded with a delay time of 2 sec and an integration period of 10 sec.
Background: An ELISA detects its analyte on a solid surface through an enzyme-linked reagent.
On to `NC(=S)n1nc(-c2ccc([N+](=O)[O-])cc2)c(CCc2cccc(Cl)c2)c1O` [JZ-1-96-2-1], for which the “REPLICATION @ 3 μM % Inhibition vs. DMSO control” value was “Toxic”.

Regarding `N=C(N)n1nc(-c2ccoc2)c(CCc2ccc(F)cc2)c1O` [JV-1-96], the “REPLICATION @ 3 μM % Inhibition vs. DMSO control” value was “Toxic”.

Consider `N=C(N)n1nc(-c2ccccn2)c(CCc2cccc(Cl)c2)c1O` [JZ-1-135-2], for which the “REPLICATION @ 3 μM % Inhibition vs. DMSO control” value was “Toxic”.

Turning to `COc1ccc(-c2nn(-c3ccccc3)c(O)c2CCc2ccc(F)cc2)cc1` [JV-1-79], the “REPLICATION @ 3 μM % Inhibition vs. DMSO control” value was “Toxic”.

The series is the same for the next values; noted with them: Human immunodeficiency virus 1, NL43, U-87 MG, 96 h, read-out: REPLICATION @ 3 μM % Inhibition vs. DMSO control.
For `Oc1c(Cc2ccc(F)cc2)c(-c2ccc(F)cc2)nn1-c1ccccn1` [JZ-1-178], the inhibition (as a rule, how much of the control response was suppressed) at 3 µM is 0%.

For the molecule `Oc1[nH]nc(-c2ccc(F)cc2)c1/N=N/c1cncc(Cl)c1` [JZ-1-110-2], the inhibition at 3 µM was determined as 19.3%.

As to `N=C(N)n1nc(-c2ccc([N+](=O)[O-])cc2)c(CCc2cccc(Cl)c2)c1O` [JV-1-62-2-1], the inhibition at 3 µM stood at 53.2%.

`NC(=O)n1nc(-c2ccc(F)cc2)c(/N=N/c2cncc(Cl)c2)c1O` [JZ-1-106]: the inhibition at 3 µM worked out at 0%.

On to `NC(=S)n1nc(-c2ccc([N+](=O)[O-])cc2)c(/N=N/c2ccc(Cl)cc2)c1O` [KM-1-46], for which the inhibition at 3 µM was 43.6%.

Regarding `NC(=S)n1nc(-c2ccc([N+](=O)[O-])cc2)c(Cc2cccc(Cl)c2)c1O` [JZ-1-97-2-1], the inhibition at 3 µM is 51.6%.

As for `NC(=S)n1nc(-c2ccc(F)cc2)c(/N=N/c2cncc(Cl)c2)c1O` [JZ-1-107], the inhibition at 3 µM turned out to be 0%.

As for `O=[N+]([O-])c1ccc(-c2n[nH]c(O)c2Cc2cccc(Cl)c2)cc1` [JZ-1-97-2-2], the inhibition at 3 µM was 0%.

As for `COc1cccc(CCc2c(-c3ccc([N+](=O)[O-])cc3)nn(C(=N)N)c2O)c1` [JZ-1-135-1], the inhibition at 3 µM is 54.1%.

Test system in another series: not listed separately
Put plainly: Preliminary pharmacokinetics in C3H mice. The note with it: i.v., 2 mg/kg.
Experimental: Compounds were administered to male C3H mice via the i.v. and p.o. routes, and plasma concentrations were assessed by LC-MS/MS at the time points indicated. Plasma levels were determined for three mice at each time point and are shown as the mean±S.D.
In the case of `NC(=S)n1nc(-c2ccc([N+](=O)[O-])cc2)c(CCc2cccc(Cl)c2)c1O` [JZ-1-96-2-1], the “T1/2” value was determined as 1.53 h.

Take `NC(=S)n1nc(-c2ccc([N+](=O)[O-])cc2)c(Cc2cccc(Cl)c2)c1O` [JZ-1-97-2-1]: the “T1/2” value is recorded as 1.66 h.

The series is the same for the next values; noted with them: p.o., 10 mg/kg.
For the molecule `NC(=S)n1nc(-c2ccc([N+](=O)[O-])cc2)c(CCc2cccc(Cl)c2)c1O` [JZ-1-96-2-1], the “% F (oral bioavailability)” value amounted to 85%.

Take `NC(=S)n1nc(-c2ccc([N+](=O)[O-])cc2)c(Cc2cccc(Cl)c2)c1O` [JZ-1-97-2-1]: the “% F (oral bioavailability)” value amounted to 57%.

The next series has as its system HIV-1 NL4-3. Nature of the series: HIV-1 infectivity in TZM-b1 reporter cells (luciferase). Format: cell-based. The note with it: 3 μM, TZM-b1 reporter cells. The procedure: Compounds (1 μM) shown in FIG. 7 were added to cultures of U87MG and CEM-T4 cells in 96-well plates, followed by infection with wild-type HIV-1 NL4-3 (50 pg p24 equivalents/ml) 1 hour later. […] Virus replication was assessed by p24 ELISA after 4 days (U87MG) or 9 days (CEM-T4). Data are expressed as the mean percent inhibition as compared to control cultures incubated with the carrier solvent (DMSO)±S.E.M. (n=4). […] FIG. 9 concerns infectivity assays. Compounds (3 μM) were added to cultures of the reporter cell line TZM-b1 followed by infection with either wild-type or Nef-defective (ΔNef) HIV NL4-3 in 96-well plates. After 48 hours, relative virus infectivity was assessed as luciferase production in infected cells. […]
as §1, with “Both the U87 MG and CEM-T4 cell lines support HIV-1 replication in a Nef-dependent manner, and were obtained from the NM AIDS Research and Reference Reagent Program.” left out
As to `N=C(N)n1nc(-c2ccoc2)c(CCc2ccc(F)cc2)c1O` [JV-1-96], the “INFECTIVITY @ 3 μM % Inhibition vs. DMSO control” value was 11.0%.

For the molecule `COc1ccc(-c2nn(-c3ccccc3)c(O)c2CCc2ccc(F)cc2)cc1` [JV-1-79], the “INFECTIVITY @ 3 μM % Inhibition vs. DMSO control” value is “Toxic”.

Still in this series, the particulars now being: Human immunodeficiency virus 1, NL43, TZM-b1, 48 h, read-out: INFECTIVITY @ 3 μM % Inhibition vs. DMSO control.
`Oc1c(Cc2ccc(F)cc2)c(-c2ccc(F)cc2)nn1-c1ccccn1` [JZ-1-178]: the inhibition at 3 µM came to 34.7%.

In the case of `NC(=S)n1nc(-c2ccc([N+](=O)[O-])cc2)c(CCc2cccc(Cl)c2)c1O` [JZ-1-96-2-1], the inhibition at 3 µM worked out at 59.5%.

Take `Oc1[nH]nc(-c2ccc(F)cc2)c1/N=N/c1cncc(Cl)c1` [JZ-1-110-2]: the inhibition at 3 µM is 0%.

In the case of `N=C(N)n1nc(-c2ccc([N+](=O)[O-])cc2)c(CCc2cccc(Cl)c2)c1O` [JV-1-62-2-1], the inhibition at 3 µM amounted to 0%.

As to `NC(=O)n1nc(-c2ccc(F)cc2)c(/N=N/c2cncc(Cl)c2)c1O` [JZ-1-106], the inhibition at 3 µM is 3.5%.

As for `NC(=S)n1nc(-c2ccc([N+](=O)[O-])cc2)c(/N=N/c2ccc(Cl)cc2)c1O` [KM-1-46], the inhibition at 3 µM was determined as 37.2%.

Consider `N=C(N)n1nc(-c2ccccn2)c(CCc2cccc(Cl)c2)c1O` [JZ-1-135-2], for which the inhibition at 3 µM came out at 0%.

Regarding `NC(=S)n1nc(-c2ccc([N+](=O)[O-])cc2)c(Cc2cccc(Cl)c2)c1O` [JZ-1-97-2-1], the inhibition at 3 µM worked out at 56.6%.

As for `NC(=S)n1nc(-c2ccc(F)cc2)c(/N=N/c2cncc(Cl)c2)c1O` [JZ-1-107], the inhibition at 3 µM was found to be 19.7%.

Take `O=[N+]([O-])c1ccc(-c2n[nH]c(O)c2Cc2cccc(Cl)c2)cc1` [JZ-1-97-2-2]: the inhibition at 3 µM came to 12.7%.

Turning to `COc1cccc(CCc2c(-c3ccc([N+](=O)[O-])cc3)nn(C(=N)N)c2O)c1` [JZ-1-135-1], the inhibition at 3 µM was found to be 9.5%.

Another series has as its system cell-surface MHC-I. Nature of the series: Nef-induced MHC-I downregulation in CEM-GFP cells (flow cytometry). Format: cell-based. The note with it: CEM-GFP cells infected with HIV-1 WT NL43, 8 days. The procedure:
(§2) CEM-GFP cells were treated for 4 hrs with compounds or DMSO (control), then infected with 100 pg/ml HIV-1 WT NL43 or 500 pg/ml ΔNef-NL43.
On the technique in general: A flow cytometer gives signals particle by particle.
As for `NC(=S)n1nc(-c2ccc([N+](=O)[O-])cc2)c(Cc2cccc(Cl)c2)c1O` [JZ-1-97-2-1], the “Reversal of Nef-mediated MHC-I downregulation” value is “reverse Nef-mediated MHC-I downregulation to the same extent observed in cells infected with Nef-defective HIV-1”.

In another series the test system is cell-surface CD4. Nature of the series: Nef-induced CD4 downregulation in CEM-GFP cells (flow cytometry). The format is cell-based. Conditions: CEM-GFP cells infected with HIV-1 WT NL43, 8 days. The procedure: as §2
Percentages on the flow diagrams (FIGS. 33A-33E) show percent of cells positive for CD4.
For `NC(=S)n1nc(-c2ccc([N+](=O)[O-])cc2)c(Cc2cccc(Cl)c2)c1O` [JZ-1-97-2-1], the “Reversal of Nef-mediated CD4 downregulation” value was “reverse Nef-mediated CD4 downregulation to the same extent observed in cells infected with Nef-defective HIV-1”.
